Laboratory results: paper PMC6119630 (Bioorganic & medicinal chemistry letters, 2018)

What was measured:
hPPARα [1] = target: T1, hPPARα (Homo sapiens, UniProt Q07869); test: PPARα luciferase cell reporter assay; details: for PPAR isoform selectivity profile: hPPARδ, hPPARγ luciferase cell-lines
T1 sequence (Q07869 1-468): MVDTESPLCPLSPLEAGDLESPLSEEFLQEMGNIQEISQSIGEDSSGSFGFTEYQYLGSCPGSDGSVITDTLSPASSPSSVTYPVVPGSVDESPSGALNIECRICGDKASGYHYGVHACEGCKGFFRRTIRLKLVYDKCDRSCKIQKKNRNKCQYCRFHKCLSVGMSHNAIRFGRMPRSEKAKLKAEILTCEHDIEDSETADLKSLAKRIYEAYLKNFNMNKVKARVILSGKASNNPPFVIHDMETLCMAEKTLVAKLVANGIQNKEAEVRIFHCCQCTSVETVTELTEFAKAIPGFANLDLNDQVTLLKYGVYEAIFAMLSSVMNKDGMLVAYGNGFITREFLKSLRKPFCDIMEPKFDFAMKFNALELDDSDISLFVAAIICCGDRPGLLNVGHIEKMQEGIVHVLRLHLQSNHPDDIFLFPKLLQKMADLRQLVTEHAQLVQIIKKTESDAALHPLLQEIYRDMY

type 2 diabetic patients = details: FIELD and ACCORD; cited from earlier work
PPARα [2] = test: Western blot analysis of PPARα expression in 661W cells; assay type: cell-based, mouse; details: 24 h treatment
hPPARα [3] = target: T1, hPPARα; test: cell-based
[4] = test system: human retinal capillary endothelial cells (HRCEC); test: in vitro wound healing assay; assay type: cell-based; details: 10 h and 24 h incubation
[5] = test system: PPARα target genes (Acadm, Cpt1a, Fabp3, Slc25a20); test: RT-PCR of PPARα target genes in 661W cells; assay type: cell-based, mouse; details: 24 h treatment, n=6
PPARα [6] = details: read-out: EC50 in biochemical PPARα assays; cited from earlier work
[7] = test system: retinas of mice and diabetic rats; details: cited from earlier work

Cc1nc(-c2ccc(C(F)(F)F)cc2)sc1C(=O)NCc1ccc(OC(C)(C)C(=O)O)cc1 [GW590735, reference compound]
cytotoxicity in reporter assay (hPPARα [1]; concentrations higher than 10 μM): observed cytotoxicity at higher concentrations

CC(C)OC(=O)C(C)(C)Oc1ccc(C(=O)c2ccc(Cl)cc2)cc1 [fenofibrate]
effects against diabetic macular edema (DME) and retinal NV (type 2 diabetic patients): robust protective effects

COc1ccc(COc2ccc(CNc3cccc(OC(C)(C)C(=O)O)c3)c(OCc3ccc(OC)cc3)c2)cc1 [Compound 28]
PPAR isoform selectivity profile (hPPARα [1]; hPPARα): pan-agonist profile was maintained
improvement in potency versus 22 (hPPARα [1]; hPPARα, compare 22 and 28): 10 fold

COc1ccc(COc2ccc(CNc3cccc(C(=O)O)c3)c(OCc3ccc(OC)cc3)c2)cc1 [Compound 26]
PPAR isoform selectivity profile (hPPARα [1]; hPPARα): maintains the selectivity

COc1ccc(COc2ccc(CNc3cccc(C(=O)O)c3)cc2)cc1 [Compound 10]
PPARα expression (Western blot) (PPARα [2]): induced the expression of PPARα in a dose-dependent manner
EC50 (hPPARα [3]): ~6 µM
wound closure (cell migration) [4]: inhibits wound closure in a dose-dependent fashion
expression of PPARα target genes (RT-PCR) [5]: induces the expression of various PPARα target genes

Cc1c(Cl)ccc2c(C(=O)O)cc(-c3ccccc3)nc12 [Compound Y-0452, 7-chloro-8-methyl-2-phenylquinoline-4-carboxylic acid]
EC50 (PPARα [6]): 25 to 50 µM
toxicity in the retinas ([7]; mice and diabetic rats): without signs of toxicity
effects in vivo against DR ([7]; retinas of mice and diabetic rats): protective effects in vivo against DR
